Test results as given in US6019970A, “Treatment of iodine deficiency diseases” (priority 1997, dated 2000).
Entries after “also recorded” stand apart in the source; their conditions may differ. Where two headings read alike, the source gives them in different places.

How the values were obtained:
[1] = system: fibrocystic disease; conditions: human, in vivo; cited from earlier work
[2] = system: breast tissue from a female rat on an iodine deficient diet; assay: Carcinogen added to iodine deficient rat model (FIG. 6); format: in vivo; conditions: iodine deficient diet (FIG. 6)
Excerpt: This finding is supportive of the inventors' contention that fibrocystic disease enhances the risk of breast cancer causing sensitization of the breast tissue to various stimuli, including carcinogens. This sensitization process may explain the increased incidence of breast cancer in women in areas of deficient iodine intake, reported by Moosa et al. in "Thyroid Status and Breast Cancer", Royal College of Surgeons, England, 53, 1975.

[3] = system: breast cancer; assay: Example 5: Incidence of breast cancer in women treated with elemental iodine; format: in vivo, human (women); conditions: comparison with published series
Excerpt: The incidence of breast cancer in women treated with elemental iodine was compared with other published results, namely the results as published by the Ontario Cancer Research, and results published by Spratt.

[4] = system: breast estrogen receptor; assay: Breast estrogen receptor activity and iodine; design: species or system rat
Excerpt: The biochemical pathway seems to be an intracellular attraction by iodine for estrogen receptors. […] Thus, cell metabolism is altered when there is "inadequate" iodine present.
A characteristic of breast cancer is the change in response to estrogen and estrogen receptor variability.

[5] = system: endometriosis; assay: Example 6: Treatment of endometriosis with iodine; format: in vivo, human
Excerpt: An effective dose of elemental iodinte (I2) to cause such a subsidence of nodularity is about 1 to 20 milligrams per day. A daily dosage of elemental iodine for the treatment of endometriosis of about 3 milligrams to about 6 milligrams is also useful. The daily dosage can be administered in an aqueous solution containing about 0.30 milligrams of elemental iodine per millilitre of solution.
Two patients, both with a diagnosis of endometriosis and both treated with birth control pills previously with little result, were treated with diatomic iodine for 10 and 18 months, respectively.

[6] = system: DMBA-induced mammary tumors; assay: Dimethylbenzanthracene studies: mean tumor volume in DMBA treated rats; format: in vivo, Sprague-Dawley virgin female rats; conditions: for Mean Tumor Volume, Exp. / Mean Tumor Volume, Week 10 / Mean Tumor Volume, Week 12 / Mean Tumor Volume, Week 14 / Mean Tumor Volume, Week 16 / Mean Tumor Volume, Week 18 / Mean Tumor Volume, Week 20 / Mean Tumor Volume, Week 22: DMBA treated rats, in mm³ (unit assumed)
Experimental: After adequate orientation of 48 hours, 80 Sprague-Dawley virgin female rats (A.A.I., PA) of 100-124 grams and approximately 37 days old, were divided randomly into eight groups each containing 10 rats. The animals were identified according to their phase, group, and rat numbers. The eight groups were labelled as Groups, IA1, IA2, IB1, IB2, IIA1, IIA2, IIB1, and IIB2. Each rat was weighed and marked for identification. Ear identification were as follows:
Group I was initially fed a normal diet and provided with double distilled drinking water (Ionics and IWT). Group II was initially fed a Remington iodine-deficient diet (Teklad, WI) during which they received double distilled drinking water.
At the end of fourteen days, and at 50-56 days old, groups I and II were divided into groups A and B. Groups IA and IIA were treated with 15 mg 7,12 Dimethylbenzanthracene (Eastman Kodak, NY) dissolved in 1 ml sesame oil by gavage. Groups IB and IIB were given a sham feeding of 1 ml of sesame oil at this time also. Only 10 rats a day were given this treatment. For the first twelve hours after treatment, the rats were housed in the fume hood and then taken to the Animal House where they were placed in the same room as groups IB and IIB. The rats in groups IA and IIA continued to be fed a normal diet and iodine-deficient diet, respectively. Groups IB and IIB also continued to receive their respective diets.
The following phases received iodine replacement therapy at these times:
Phase 1--at time of initial feeding of Remington diet
Phase 2--at time of DMBA pulse
Phase 3--at 10 days after DMBA treatment
Groups IA1, IB1, IIA1, and IIB1 received 2.67 ml/1000 ml dilution of a 0.3 mg/ml "mother" iodine concentrate for the rest of the experiment. The technique for making the iodine solution was as follows:
4) A second container was used to measure 2.67 ml of concentrate to 1000 ml DD H2 O. This dilution was then used as drinking water for the animals.
This daily dosage corresponds to the rats receiving 0.07-0.09 mg per kilogram body weight. The other groups continued to receive double distilled drinking water. Thus, the groups were arranged in the following order:
Palpations of the breasts were performed twice a week for the first 30 days after pulse DMBA was administered. The masses, if any, were drawn, measured by caliper, described as to consistency and freedom of motion, and all observations were recorded. After 30 days, the above observations were taken (including framing of tumor if larger than 5 mm) every 2 days and recorded.
Group 1, which was initially fed a normal diet, and Group 2 which was initially fed a Remington iodine deficient diet. Within the two groups are four subgroups, phases 1, 2 and 3, and a control. Phase 1 received iodine replacement therapy at the time of the initial feeding of either the Remington diet or the normal diet. Phase 2 received iodine replacement therapy at the time of DMBA treatment. Phase 3 received iodine replacement therapy 10 days after DMBA treatment.
*Volumes were calculated using the formula 4/3 ((L + W) .div. 2)
All measurements were recorded in centimeters designating the greatest

[7] = system: DMBA-induced mammary gland neoplasia; assay: Example 4: Iodine treatment of induced breast tumors in rats; format: in vivo, rat
Excerpt: DMBA, a carcinogen, causes mammary gland neoplasia in rats. If these tumors contain breast peroxidase, tney respond to iodine and estrogen treatment. However, as the tumors become less responsive to iodine (hormone independent), breast peroxidase is found to be lacking.

[8] = system: breast tissue from a female rat on an iodine deficient diet; assay: Iodine replacement therapy in iodine deficient rats, morphology of breast tissue; format: in vivo
Excerpt: Studies on rats have included iodine replacement therapy in animals made iodine deficient by a Remington iodine-free diet.
The first iodine product used in the reversal experiment was sodium iodide.
FIG. 1 is a photomicrograph of the breast tissue of a human.
Biological Trace Element Research, Volume 5, 1983, 399-412. The material disclosed in these articles is incorporated herein by reference.
This deficiency can be obtained either through the use of an iodine deficient diet and/or through perchlorate treatment.

[9] = system: dysplastic mastodynia; conditions: women with dysplastic mastodynia; cited from earlier work
[10] = system: breast tissue from a female rat on an iodine deficient diet; conditions: Remington iodine-free diet; iodide salts in food, normal and excessive levels; cited from earlier work
[11] = Group I, Normal Diet, Iodine Phase I
[12] = Group I, Normal Diet, Iodine Phase II
[13] = Group I, Normal Diet, Iodine Phase III
[14] = Group II, ID (iodine-deficient) Diet, Iodine Phase I
[15] = Group II, ID (iodine-deficient) Diet, Iodine Phase II
[16] = Group II, ID (iodine-deficient) Diet, Iodine Phase III

SMILES: C#C[C@]1(O)CC[C@H]2[C@@H]3CCC4=Cc5oncc5C[C@]4(C)[C@H]3CC[C@@]21C [danazol]
- side effects in treatment of mammary dysplasia [1]: massive side effects

SMILES: Cc1c2ccccc2c(C)c2c1ccc1ccccc12 [dimethyl benzanthracene, 7,12 Dimethylbenzanthracene]
- progression of fibrocystic dysplasia [2]: progression from the benign state of fibrocystic dysplasia to overt malignancy

SMILES: II [elemental iodine, diatomic iodine]
- incidence of breast cancer versus women not so treated [3]: less than the incidence of breast cancer in women who had not been so treated
- breast estrogen receptor activities after iodine replacement ([4]; iodine deficiency): disappears upon iodine replacement
- role in estrogen receptor function ([4]; rats): necessary for normal estrogen receptor function in rats
- nodularity of pelvic peritoneum ([5]; about 1 to 20 milligrams per day): subsidence of the nodularity of the patient's pelvic peritoneum
- overall response to iodine treatment, series of patients ([5]; no other medication during trial therapy): This series of patients has responded
- effect of stopping medication ([5]; third patient): asymptomatic for two cycles, and then their pain returned
- pelvic pain and nodularity on treatment ([5]; third patient): within two cycles, with complete relief of pelvic pain and improvement in the pelvic nodularity on rectal examination
- cyclic lower abdominal pain ([5]; three patients treated for fibrocystic breast dysplasia): coincident dramatic decrease in their cyclic lower abdominal pain
- effect of restarting medication ([5]; two patients): The subjective symptoms and physical findings again improved within one cycle
- effect of stopping medication ([5]; two patients): within one cycle, they had severe pain again, with increasing nodularity of the pelvic peritoneum on rectal examination
- pain on treatment ([5]; two patients, 10 and 18 months): complete amelioration of their pain within one cycle of starting the medication
- Mean Tumor Volume, Exp. [6, 11]: 320.524
- Mean Tumor Volume, Week 10 [6, 11]: 15.191
- Mean Tumor Volume, Week 12 [6, 11]: 53.565
- Mean Tumor Volume, Week 14 [6, 11]: 67.739
- Mean Tumor Volume, Week 16 [6, 11]: 97.979
- Mean Tumor Volume, Week 18 [6, 11]: 136.405
- Mean Tumor Volume, Week 20 [6, 11]: 155.904
- Mean Tumor Volume, Week 22 [6, 11]: 214.962
- Mean Tumor Volume, Exp. [6, 12]: 534.001
- Mean Tumor Volume, Week 10 [6, 12]: 7.603
- Mean Tumor Volume, Week 12 [6, 12]: 57.853
- Mean Tumor Volume, Week 14 [6, 12]: 106.887
- Mean Tumor Volume, Week 16 [6, 12]: 140.751
- Mean Tumor Volume, Week 18 [6, 12]: 216.033
- Mean Tumor Volume, Week 20 [6, 12]: 247.025
- Mean Tumor Volume, Week 22 [6, 12]: 320.468
- Mean Tumor Volume, Exp. [6, 13]: 392.61
- Mean Tumor Volume, Week 10 [6, 13]: 6.686
- Mean Tumor Volume, Week 12 [6, 13]: 24.079
- Mean Tumor Volume, Week 14 [6, 13]: 75.421
- Mean Tumor Volume, Week 16 [6, 13]: 90.319
- Mean Tumor Volume, Week 18 [6, 13]: 127.529
- Mean Tumor Volume, Week 20 [6, 13]: 184.717
- Mean Tumor Volume, Week 22 [6, 13]: 319.229
- Mean Tumor Volume, Exp. [6, 14]: 337.516
- Mean Tumor Volume, Week 10 [6, 14]: 4.048
- Mean Tumor Volume, Week 12 [6, 14]: 23.367
- Mean Tumor Volume, Week 14 [6, 14]: 65.244
- Mean Tumor Volume, Week 16 [6, 14]: 119.156
- Mean Tumor Volume, Week 18 [6, 14]: 155.189
- Mean Tumor Volume, Week 20 [6, 14]: 174.49
- Mean Tumor Volume, Week 22 [6, 14]: 238.883
- Mean Tumor Volume, Exp. [6, 15]: 613.044
- Mean Tumor Volume, Week 10 [6, 15]: 0.216
- Mean Tumor Volume, Week 12 [6, 15]: 54.934
- Mean Tumor Volume, Week 14 [6, 15]: 111.962
- Mean Tumor Volume, Week 16 [6, 15]: 168.475
- Mean Tumor Volume, Week 18 [6, 15]: 269.008
- Mean Tumor Volume, Week 20 [6, 15]: 401.774
- Mean Tumor Volume, Week 22 [6, 15]: 519.122
- Mean Tumor Volume, Exp. [6, 16]: 500.435
- Mean Tumor Volume, Week 10 [6, 16]: 5.816
- Mean Tumor Volume, Week 12 [6, 16]: 36.68
- Mean Tumor Volume, Week 14 [6, 16]: 81.81
- Mean Tumor Volume, Week 16 [6, 16]: 177.888
- Mean Tumor Volume, Week 18 [6, 16]: 203.824
- Mean Tumor Volume, Week 20 [6, 16]: 356.807
- Mean Tumor Volume, Week 22 [6, 16]: 393.328
- mean tumor volume, in words ([6]; pretreatment before DMBA, versus nontreated controls): reduction of mean tumor volume as compared to the nontreated controls; also recorded: reduced the mean tumor volume in the DMBA treated rats
- tumor response ([7]; about 0.5 mg per 100 gm body weight, orally or intraperitoneally, preliminary): more response to both diatomic iodine and estrogen

SMILES: [O-][Cl+3]([O-])([O-])O [perchlorate, reference compound]
- effect on tumorigenesis and iodide therapy ([7]; peroxidase-blocking agent): increases the tumorigenesis and the effectiveness of iodide therapy

SMILES: [I-].[K+] [potassium iodide, reference compound]
- reversal of pathological changes / tissue morphology of rat breast after iodine replacement [8]: only minimal success
- improvement rate [9]: 71%

SMILES: [I-].[Na+] [sodium iodide, reference compound]
- breast dysplasia after iodine replacement [10]: the breast dysplasia appeared to abate with a partial subsidence of epithelial hyperplasia and a loss of cystic spaces but with a continuation of the fibrosis of the syndrome
- reversal of pathological changes / tissue morphology of rat breast after iodine replacement [8]: reversal of the pathological changes to a degree with the partial subsidence of cyst formation, epithelial hyperplasia and fibrosis. The interacinar fibrosis remained
- reversal of pathological changes / tissue morphology of rat breast after iodine replacement ([8]; listed as sodium iodide (NaI)): only minimal success
- reversal of pathological changes / tissue morphology of rat breast after iodine replacement ([8]; listed as sodium iodine): The epithelial hyperplasia regressed and the cystic spaces disappeared, but the fibrous tissue remained
